Experimental data reported in ChEMBL document CHEMBL4196027, “Structure-based discovery of cytotoxic dimeric tetrahydroxanthones as potential topoisomerase I inhibitors from a marine-derived fungus” (Eur J Med Chem, 2018).
Calls of active or inactive are those of the source. The calls are words filed in the database; no cut-off is given here.

Columns and labels:
HCT-116 = assay: Cytotoxicity against human HCT116 cells assessed as reduction in cell proliferation after 48 hrs by MTT assay; assay type: functional, cell-based
MGC-803 [1] = assay: Cytotoxicity against human MGC803 cells assessed as reduction in cell proliferation after 48 hrs by MTT assay; assay type: functional, cell-based
[2] = Cytotoxicity against human HO8910 cells assessed as reduction in cell proliferation after 48 hrs by MTT assay; assay type: functional, cell-based
HL-60 = assay: Cytotoxicity against human HL60 cells assessed as reduction in cell proliferation after 48 hrs by MTT assay; assay type: functional, cell-based
A549 = assay: Cytotoxicity against human A549 cells assessed as reduction in cell proliferation after 48 hrs by MTT assay; assay type: functional, cell-based
NCI-H1975 = assay: Cytotoxicity against human NCI-H1975 cells assessed as reduction in cell proliferation after 48 hrs by MTT assay; assay type: functional, cell-based
K562 = assay: Cytotoxicity against human K562 cells assessed as reduction in cell proliferation after 48 hrs by MTT assay; assay type: functional, cell-based
HEK293 = assay: Cytotoxicity against HEK293 cells assessed as reduction in cell proliferation after 48 hrs by MTT assay; assay type: cell-based; conditions: Homo sapiens, HEK293, 48 h
[3] = biological target: T1, DNA topoisomerase 1 (Homo sapiens) (UniProt P11387); assay: Inhibition of DNA topoisomerase-1 (unknown origin) up to 40 uM using supercoiled pBR322 DNA as substrate preincubated with enzyme followed by substrate addition measured after 30 mins by ethidium bromide staining based agarose gel electrophoresis method
T1 sequence (whole entry): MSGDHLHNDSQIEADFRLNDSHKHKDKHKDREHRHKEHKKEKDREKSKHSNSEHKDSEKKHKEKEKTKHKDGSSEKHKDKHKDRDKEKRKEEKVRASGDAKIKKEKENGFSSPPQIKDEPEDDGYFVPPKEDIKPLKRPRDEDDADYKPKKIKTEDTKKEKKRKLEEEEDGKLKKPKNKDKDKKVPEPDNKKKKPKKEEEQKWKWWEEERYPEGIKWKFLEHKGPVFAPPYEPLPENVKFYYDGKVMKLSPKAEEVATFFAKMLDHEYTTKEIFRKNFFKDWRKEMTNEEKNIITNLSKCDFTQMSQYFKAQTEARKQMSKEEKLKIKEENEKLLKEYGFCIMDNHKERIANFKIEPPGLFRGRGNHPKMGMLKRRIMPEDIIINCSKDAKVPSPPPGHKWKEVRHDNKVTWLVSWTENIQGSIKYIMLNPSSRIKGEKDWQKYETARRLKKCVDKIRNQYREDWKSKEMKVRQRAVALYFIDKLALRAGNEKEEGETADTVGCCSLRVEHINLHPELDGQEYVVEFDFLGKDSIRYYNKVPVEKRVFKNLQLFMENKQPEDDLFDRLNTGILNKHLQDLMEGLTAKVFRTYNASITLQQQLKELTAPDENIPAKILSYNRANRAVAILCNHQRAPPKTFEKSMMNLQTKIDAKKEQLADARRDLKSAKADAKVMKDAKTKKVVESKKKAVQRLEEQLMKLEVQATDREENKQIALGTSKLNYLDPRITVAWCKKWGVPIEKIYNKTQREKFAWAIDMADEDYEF

[4] = biological target: T2, Topoisomerase I (Bos taurus) (UniProt Q2HPH0); assay: Inhibition of calf thymus DNA topoisomerase-1-mediated supercoiled pBR322 DNA relaxation assessed as stabilization of enzyme-DNA complex at 100 uM preincubated with enzyme followed by substrate addition measured after 30 mins by ethidium bromide staining based agarose gel electrophoresis method
T2 sequence (whole entry): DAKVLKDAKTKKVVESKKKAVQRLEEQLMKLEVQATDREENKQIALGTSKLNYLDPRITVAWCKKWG

Homo sapiens = organism: Homo sapiens; assay: Inhibition of DNA topoisomerase-2 (unknown origin) at 100 uM using kinetoplast DNA as substrate measured after 30 mins by ethidium bromide staining based agarose gel electrophoresis method
[5] = biological target: T2, Topoisomerase I (Bos taurus); conditions: 40 uM
Description: Inhibition of calf thymus DNA topoisomerase-1-mediated supercoiled pBR322 DNA relaxation assessed as stabilization of enzyme-DNA complex at 40 uM preincubated with enzyme followed by substrate addition measured after 30 mins by ethidium bromide staining based agarose gel electrophoresis method

DNA [6] = assay: Inhibition of ethidium bromide binding to Escherichia coli pBR322 DNA at 100 uM after 30 mins by fluorescence assay; assay type: nucleic-acid assay
MGC-803 [7] = assay: Induction of cell membrane permeability in human MGC803 cells up to 50 uM up to 72 hrs by LDH release assay; assay type: functional, cell-based
[8] = biological target: T1, DNA topoisomerase 1 (Homo sapiens); assay: Inhibition of DNA topoisomerase-1 (unknown origin) at 10 uM using supercoiled pBR322 DNA as substrate preincubated for 15 mins followed by substrate addition measured after 30 mins by ethidium bromide staining based agarose gel electrophoresis method
[9] = biological target: T1, DNA topoisomerase 1 (Homo sapiens); assay: Inhibition of DNA topoisomerase-1 (unknown origin) using supercoiled pBR322 DNA as substrate preincubated with enzyme followed by substrate addition measured after 30 mins by ethidium bromide staining based agarose gel electrophoresis method
DNA [10] = assay: Binding affinity to Escherichia coli pBR322 DNA assessed as red shift by UV-Visible spectrum analysis; assay type: nucleic-acid assay
MGC-803 [11] = assay: Induction of necrosis in human MGC803 cells after 24 hrs by Annexin V-FITC/propidium iodide staining based flow cytometry; assay type: functional, cell-based
DNA [12] = assay: Binding affinity to Escherichia coli pBR322 DNA assessed as hypochromicity by UV-Visible spectrum analysis; assay type: nucleic-acid assay
MGC-803 [13] = assay: Induction of apoptosis in human MGC803 cells up to 25 uM after 48 hrs by Hoechst 33342/propidium iodide staining based flow cytometry; assay type: functional, cell-based
MGC-803 [14] = assay: Induction of apoptosis in human MGC803 cells assessed as change in procaspase-9 protein expression up to 25 uM after 24 hrs by Western blot analysis; assay type: functional, cell-based
MGC-803 [15] = assay: Cell cycle arrest in human MGC803 cells assessed as accumulation at G2/M phase after 24 hrs by propidium iodide staining based flow cytometry; assay type: functional
[16] = biological target: T1, DNA topoisomerase 1 (Homo sapiens); assay: Inhibition of DNA topoisomerase-1 (unknown origin) at 10 uM using supercoiled pBR322 DNA as substrate preincubated for 1 to 30 mins followed by substrate addition by ethidium bromide staining based agarose gel electrophoresis method; conditions: TDE = time-dependent effect
MGC-803 [17] = assay: Induction of apoptosis in human MGC803 cells assessed as change in PARP protein expression up to 25 uM after 24 hrs by Western blot analysis; assay type: functional, cell-based

SMILES	IC50 (HCT-116; Homo sapiens, HCT-116, 48 h)	IC50 (MGC-803 [1]; Homo sapiens, MGC-803, 48 h)	IC50 ([2]; Homo sapiens, HO-8910, 48 h)	IC50 (HL-60; Homo sapiens, HL-60, 48 h)	IC50 (A549; Homo sapiens, A549, 48 h)	IC50 (NCI-H1975; Homo sapiens, NCI-H1975, 48 h)	IC50 (K562; Homo sapiens, K562, 48 h)	IC50 (HEK293)	inhibition [4]	inhibition (Homo sapiens)	further results
COC(=O)[C@@]12Oc3c(-c4ccc(O)c5c4O[C@]4(C(=O)OC)C(=C(O)C[C@H](C)[C@H]4O)C5=O)ccc(O)c3C(=O)C1=C(O)C[C@H](C)[C@H]2O	0.5 µM	0.9 µM	1.4 µM	0.9 µM	11.7 µM	3.5 µM	0.4 µM				
COC(=O)[C@@]12Oc3ccc(-c4ccc(O)c5c4O[C@]4(C(=O)OC)C(=C(O)C[C@H](C)[C@H]4O)C5=O)c(O)c3C(=O)C1=C(O)C[C@H](C)[C@H]2O	1.2 µM	1.1 µM	1.5 µM	0.5 µM	1.6 µM		1.1 µM				
COC(=O)c1c(O)c(C)cc(O)c1C(=O)c1c(O)ccc(-c2ccc3c(c2O)C(=O)C2=C(O)C[C@H](C)[C@@H](O)[C@]2(C(=O)OC)O3)c1O	> 50 µM		> 50 µM	27.8 µM	> 50 µM	> 50 µM	> 50 µM	> 50 µM			
COC(=O)[C@@]12Oc3ccc(-c4ccc(O)c5c4O[C@]4(C(=O)OC)C(=C(O)C[C@H](C)[C@H]4O)C5=O)c(O)c3C(=O)C1=C(O)C[C@H](CO)[C@H]2O	> 50 µM		> 50 µM	47.3 µM	> 50 µM	> 50 µM	> 50 µM	> 50 µM			
COC(=O)[C@@]12Oc3c(-c4ccc5c(c4O)C(=O)C4=C(O)C[C@H](C)[C@@H](O)[C@]4(C(=O)OC)O5)ccc(O)c3C(=O)C1=C(O)C[C@H](CO)[C@H]2O	> 50 µM	> 50 µM	> 50 µM	49.5 µM	> 50 µM	49.5 µM	> 50 µM	> 50 µM	Active	inactive	inhibition [3]: Active
CC[C@@]1(O)C(=O)OCc2c1cc1n(c2=O)Cc2cc3cc(O)ccc3nc2-1											inhibition [5]: Active
COc1cc(NS(C)(=O)=O)ccc1Nc1c2ccccc2nc2ccccc12											inhibition (DNA [6]): Active
COC(=O)[C@@]12Oc3cc(C)c(-c4ccc5c(c4O)C(=O)C4=C(O)C[C@H](C)[C@@H](O)[C@]4(C(=O)OC)O5)c(O)c3C(=O)C1=C(O)CC[C@H]2O (stereo in doubt; 1)									Active	inactive	Activity (MGC-803 [7]): Active; inhibition [8]: 100%; inhibition [9]: Dose-dependent effect; Activity (DNA [10]): inactive; Activity (MGC-803 [11]): Dose-dependent effect; inhibition (DNA [6]): inactive; Activity (DNA [12]): inactive; Activity (MGC-803 [13]): inactive; Activity (MGC-803 [14]): inactive; Activity (MGC-803 [15]): Dose-dependent effect; inhibition [16]: Tde; Activity (MGC-803 [17]): inactive
COC(=O)[C@@]12Oc3cc(C)c(-c4ccc5c(c4O)C(=O)C4=C(O)C[C@H](C)[C@@H](O)[C@]4(C(=O)OC)O5)c(O)c3C(=O)C1=C(O)CC[C@H]2O (stereo in doubt; 2) [listing 1 of 2 here]											IC50 (HCT-116; hct-116): 15.2 µM; IC50 (MGC-803 [1]; mgc-803): 6.2 µM; IC50 [2]: 6.9 µM; IC50 (HL-60; hl-60): 6.9 µM; IC50 (A549; a549): 19.2 µM; IC50 (NCI-H1975; nci-h1975): 5.3 µM; IC50 (K562; k562): 22.1 µM
COC(=O)[C@@]12Oc3cc(C)c(-c4ccc5c(c4O)C(=O)C4=C(O)C[C@H](C)[C@@H](O)[C@]4(C(=O)OC)O5)c(O)c3C(=O)C1=C(O)CC[C@H]2O (stereo in doubt; 2) [listing 2 of 2 here]									Active	inactive	inhibition [3]: Active
